# US7629323B2, “Manipulation of neuronal ion channels” (Northwestern University, priority 2003, dated 2009)
# Legend:
# [1] = tested on: Inward rectifier K+ channels; conditions: cited from earlier work
# [2] = biological target: T1, Kv3.4a/Kv3.1b heteromeric channels (Rattus norvegicus, UniProt P25122+Q63734); assay type: cell-based; conditions: HEK293 cells, n=4
# T1 construct: expressed in transfected cells; host or cells: HEK293
# T1 sequence (Q63734 1-625): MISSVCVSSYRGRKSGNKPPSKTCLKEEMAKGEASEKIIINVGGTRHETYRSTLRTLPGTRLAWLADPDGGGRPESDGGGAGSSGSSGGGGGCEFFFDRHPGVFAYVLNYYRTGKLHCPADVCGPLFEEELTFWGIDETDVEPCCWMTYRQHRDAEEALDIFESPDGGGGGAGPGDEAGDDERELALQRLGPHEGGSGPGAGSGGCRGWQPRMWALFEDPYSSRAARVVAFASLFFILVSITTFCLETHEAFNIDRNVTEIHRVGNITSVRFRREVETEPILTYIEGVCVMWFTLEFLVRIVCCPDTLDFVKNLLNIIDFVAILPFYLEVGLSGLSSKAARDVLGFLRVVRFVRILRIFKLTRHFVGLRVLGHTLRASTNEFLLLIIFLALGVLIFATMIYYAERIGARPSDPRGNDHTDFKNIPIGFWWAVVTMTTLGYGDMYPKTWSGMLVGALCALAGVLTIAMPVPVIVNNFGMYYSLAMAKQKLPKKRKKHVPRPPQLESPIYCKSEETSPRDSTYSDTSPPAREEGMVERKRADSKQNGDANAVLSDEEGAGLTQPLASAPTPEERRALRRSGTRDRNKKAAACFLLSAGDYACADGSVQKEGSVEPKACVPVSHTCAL
# T1 sequence (P25122 1-585): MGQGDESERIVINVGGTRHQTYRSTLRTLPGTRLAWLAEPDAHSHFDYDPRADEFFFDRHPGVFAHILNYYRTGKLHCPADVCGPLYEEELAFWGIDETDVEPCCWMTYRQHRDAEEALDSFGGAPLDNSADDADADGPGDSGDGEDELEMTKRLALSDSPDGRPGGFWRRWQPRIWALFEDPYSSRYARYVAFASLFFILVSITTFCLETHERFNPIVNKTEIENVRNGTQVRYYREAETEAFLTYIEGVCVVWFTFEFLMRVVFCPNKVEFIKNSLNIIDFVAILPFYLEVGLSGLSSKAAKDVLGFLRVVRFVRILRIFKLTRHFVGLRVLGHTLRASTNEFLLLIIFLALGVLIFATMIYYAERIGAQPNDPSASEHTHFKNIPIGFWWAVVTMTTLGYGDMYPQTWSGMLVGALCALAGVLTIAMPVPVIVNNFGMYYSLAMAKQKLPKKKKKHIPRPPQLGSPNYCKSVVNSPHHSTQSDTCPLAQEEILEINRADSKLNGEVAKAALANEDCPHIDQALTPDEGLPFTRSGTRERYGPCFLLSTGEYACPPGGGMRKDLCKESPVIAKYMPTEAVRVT
# Text: Electrophysiology. Whole-cell recordings used standard techniques^27,28. The internal solution consisted of (in mM): 30-90 K2SO4, 0-60 N-methyl-D-glucamine, 2 MgCl2, 40 HEPES, 5 EGTA, 12 phosphocreatine, 2 Na2ATP, 0.2 Na3GTP, and 0.1 leupeptin, pH 7.2 with H2SO4 (osmolarity 260-270 mOsm/l). The external solution consisted of (in mM): 140 Na-isethionate, 2 KCl, 4 MgCl2, 10 HEPES, 12 glucose and 0.001 TTX, pH 7.35 with NaOH (osmolarity 295-305 mOsm/l). The internal solution for current clamp recordings consisted of (in mM) 110 potassium methylsulphate, 2 MgCl2, 40 HEPES, 5 EGTA, 12 phosphocreatine, 2 Na2ATP, 0.2 Na3GTP, and 0.1 leupeptin, pH 7.2 with H2SO4 (osmolarity 260-270 mOsm/l). In the case of current clamp recordings, TTX was omitted from external solution. For the recordings in the presence of Ca^+2 ions EGTA was omitted from internal solution and 4 mM of MgCl2 was substituted by 2 mM of CaCl2 and 2 mM of MgCl2. […] Recordings were obtained with Axon Instruments 200 patch-clamp amplifier and controlled and monitored with a PC running pClamp software (version 7.0) (Axon Instruments Inc., Union City, Calif.). […] After seal rupture, series resistance (2-10 MΩ) was compensated (75-90%) and periodically monitored. […]
# Single cell RT-PCR (scRT-PCR). […] In the case of co-transfection with Kv3.4a and Kv3.1b cDNA, single cell RT-PCR was used to confirm the presence of both mRNAs in the recorded cell. […]
substance,measurement,setting,value
BDS-I (AAPCFCSGKPGRGDLWILRGTCPGGYGYTSNCYKWPNICCYPH),sensitivity of inward rectifier K+ channels,[1],insensitive
same,block of Kv3.4a/Kv3.1b heteromeric channels,[2],strong at the beginning of a depolarizing step and then waned with maintained depolarization
